What was measured:
[1] = tested on: MRC5; test: MTS proliferation assay; format: cell-based; conditions: MRC5, 72 h
How it was run: (§1)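 Proliferation is assessed by MTS conversion, measured as 492 nm absorption. Cells are treated for three days (72 h) with four compound concentrations between 0.3 and 10 μM.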

[2] = tested on: Jurkat; test: MTS proliferation assay; format: cell-based, human; conditions: 72 h
How it was run: as §1

[3] = tested on: HeLa; test: MTS proliferation assay; format: cell-based, human; conditions: 72 h
How it was run: as §1

[4] = Hoechst 33342 nuclear staining; format: cell-based; conditions: for Hoechst 33342 nuclear staining score, HeLa: HeLa cells; for Hoechst 33342 nuclear staining score, Jurkat: Jurkat cells; for Hoechst 33342 nuclear staining score, H460: H460 cells; for Hoechst 33342 nuclear staining score, Jily: Jily cells; for Hoechst 33342 nuclear staining score, MRC5: MRC5 cells; as to Hoechst 33342 nuclear staining score, PBLs: key: 0: no activity; 1: weak activity comprising less than 50% of the cells; 2: strong activity comprising more than 50% of the cells;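 as to all read-outs here: apoptotic nuclei scored 0 none 1 weak under 50% of cells 2 strong over 50% of cells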
How it was run: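 Cells were plated in 96 well tissue culture plates in 80 μl complete medium, with 3-5*10^3 cells per well for adherent lines and 8-10*10^3 for suspension lines. Adherent cells spread for 24 h before treatment, while suspension cells were treated right after seeding. Compounds were added in 20 μl complete medium containing max 5% DMSO.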

[5] = conc 0.1 (final concentrations in μM), 24 h or 48 h incubation
[6] = conc 0.3 (final concentrations in μM), 24 h or 48 h incubation
[7] = conc 1 (final concentrations in μM), 24 h or 48 h incubation
[8] = conc 3 (final concentrations in μM), 24 h or 48 h incubation

Row | Structure (SMILES) | IC50 [1] [nM] | IC50 [2] [nM] | IC50 [3] [nM] | Hoechst 33342 nuclear staining score, HeLa [4, 5] | Hoechst 33342 nuclear staining score, HeLa [4, 6] | Hoechst 33342 nuclear staining score, HeLa [4, 7] | Hoechst 33342 nuclear staining score, HeLa [4, 8] | Hoechst 33342 nuclear staining score, Jurkat [4, 5] | Hoechst 33342 nuclear staining score, Jurkat [4, 6] | Hoechst 33342 nuclear staining score, Jurkat [4, 7] | Hoechst 33342 nuclear staining score, Jurkat [4, 8] | Hoechst 33342 nuclear staining score, H460 ([4]; conc 0.1) | Hoechst 33342 nuclear staining score, H460 ([4]; conc 0.3) | Hoechst 33342 nuclear staining score, H460 ([4]; conc 1) | Hoechst 33342 nuclear staining score, H460 ([4]; conc 3) | Hoechst 33342 nuclear staining score, HeLa ([4]; conc 0.1) | Hoechst 33342 nuclear staining score, HeLa ([4]; conc 0.3) | Hoechst 33342 nuclear staining score, HeLa ([4]; conc 1) | Hoechst 33342 nuclear staining score, HeLa ([4]; conc 3) | Hoechst 33342 nuclear staining score, Jily ([4]; conc 0.1) | also measured
1 | Cc1ccc(S(=O)(=O)n2cc(-c3cncc(C(N)=O)c3)cc2-c2ccc3c(c2)OCO3)cc1 [Example 50] | > 1000 | < 1000 | > 1000 | 0 | 0 | 0 | 2 (strong activity comprising more than 50% of the cells) | 0 | 0 | 0 | 2 (strong activity comprising more than 50% of the cells) | – | – | – | – | – | – | – | – | – | –
2 | Cc1ccc(S(=O)(=O)n2cc(-c3ccc(C(N)=O)cc3)cc2-c2cccs2)cc1 [Example 52] | > 1000 | > 1000 | > 1000 | 0 | 0 | 0 | 0 | 0 | 0 | 0 | 0 | – | – | – | – | – | – | – | – | – | –
3 | Cc1ccc(S(=O)(=O)n2cc(-c3ccc(C#N)cc3)cc2-c2cccs2)cc1 [Example 54] | > 1000 | < 1000 | > 1000 | 0 | 0 | 0 | 0 | 0 | 0 | 0 | 0 | – | – | – | – | – | – | – | – | – | Hoechst 33342 nuclear staining score, H460 [4, 5]: 0; Hoechst 33342 nuclear staining score, H460 [4, 6]: 0; Hoechst 33342 nuclear staining score, H460 [4, 7]: 0; Hoechst 33342 nuclear staining score, H460 [4, 8]: 0; Hoechst 33342 nuclear staining score, Jily [4, 5]: 0; Hoechst 33342 nuclear staining score, Jily [4, 6]: 0; Hoechst 33342 nuclear staining score, Jily [4, 7]: 0; Hoechst 33342 nuclear staining score, Jily [4, 8]: 0; Hoechst 33342 nuclear staining score, MRC5 [4, 5]: 0; Hoechst 33342 nuclear staining score, MRC5 [4, 6]: 0; Hoechst 33342 nuclear staining score, MRC5 [4, 7]: 0; Hoechst 33342 nuclear staining score, MRC5 [4, 8]: 0; Hoechst 33342 nuclear staining score, PBLs [4, 5]: 0; Hoechst 33342 nuclear staining score, PBLs [4, 6]: 0; Hoechst 33342 nuclear staining score, PBLs [4, 7]: 0; Hoechst 33342 nuclear staining score, PBLs [4, 8]: 0
4 | COc1cc(-c2cc(-c3cncc(C(=O)NCCC4CCCN4C)c3)cn2S(=O)(=O)c2ccc(C)cc2)cc(OC)c1OC.Cl (stereo not shown) [Example 62] | > 1000 | > 1000 | > 1000 | – | – | – | – | – | – | – | – | 0 | 0 | 0 | 0 | 0 | 0 | 0 | 0 | 0 | Hoechst 33342 nuclear staining score, Jily ([4]; conc 0.3): 0; Hoechst 33342 nuclear staining score, Jily ([4]; conc 1): 0; Hoechst 33342 nuclear staining score, Jily ([4]; conc 3): 0; Hoechst 33342 nuclear staining score, Jurkat ([4]; conc 0.1): 0; Hoechst 33342 nuclear staining score, Jurkat ([4]; conc 0.3): 0; Hoechst 33342 nuclear staining score, Jurkat ([4]; conc 1): 0; Hoechst 33342 nuclear staining score, Jurkat ([4]; conc 3): 2 (strong activity comprising more than 50% of the cells); Hoechst 33342 nuclear staining score, MRC5 ([4]; conc 0.1): 0; Hoechst 33342 nuclear staining score, MRC5 ([4]; conc 0.3): 0; Hoechst 33342 nuclear staining score, MRC5 ([4]; conc 1): 0; Hoechst 33342 nuclear staining score, MRC5 ([4]; conc 3): 0; Hoechst 33342 nuclear staining score, PBLs ([4]; conc 0.1): 0; Hoechst 33342 nuclear staining score, PBLs ([4]; conc 0.3): 0; Hoechst 33342 nuclear staining score, PBLs ([4]; conc 1): 0; Hoechst 33342 nuclear staining score, PBLs ([4]; conc 3): 0
5 | COc1cc(-c2cc(-c3cncc(C(=O)O)c3)cn2S(=O)(=O)c2ccc(C)cc2)cc(OC)c1OC.N [Example 66] | > 1000 | > 1000 | > 1000 | – | – | – | – | – | – | – | – | 0 | 0 | 0 | 0 | 0 | 0 | 0 | 0 | 0 | Hoechst 33342 nuclear staining score, Jily ([4]; conc 0.3): 0; Hoechst 33342 nuclear staining score, Jily ([4]; conc 1): 0; Hoechst 33342 nuclear staining score, Jily ([4]; conc 3): 0; Hoechst 33342 nuclear staining score, Jurkat ([4]; conc 0.1): 0; Hoechst 33342 nuclear staining score, Jurkat ([4]; conc 0.3): 0; Hoechst 33342 nuclear staining score, Jurkat ([4]; conc 1): 0; Hoechst 33342 nuclear staining score, Jurkat ([4]; conc 3): 0; Hoechst 33342 nuclear staining score, MRC5 ([4]; conc 0.1): 0; Hoechst 33342 nuclear staining score, MRC5 ([4]; conc 0.3): 0; Hoechst 33342 nuclear staining score, MRC5 ([4]; conc 1): 0; Hoechst 33342 nuclear staining score, MRC5 ([4]; conc 3): 0; Hoechst 33342 nuclear staining score, PBLs ([4]; conc 0.1): 0; Hoechst 33342 nuclear staining score, PBLs ([4]; conc 0.3): 0; Hoechst 33342 nuclear staining score, PBLs ([4]; conc 1): 0; Hoechst 33342 nuclear staining score, PBLs ([4]; conc 3): 0

— US7612064B2, “Sulfopyrroles” (Takeda Pharmaceutical Company Limited, priority 2003, dated 2009)
